Results taken from patent US20230133132A1, “NAMPT MODULATORS” (Cytokinetics, Inc., priority 2020, published 2023).

Experiments:
[1] = target: human NAMPT (Homo sapiens, UniProt P43490); test: Human recombinant enzyme assay (NMN fluorescence biochemical assay)
Method: Compounds described herein were assayed for their ability to stimulate the synthesis of nicotinamide mononucleotide (NMN) by the enzyme NAMPT. The human recombinant enzyme assay measures the activation of the enzyme activity by compounds using recombinant enzyme and substrates in a buffered cell-free system. The assay conditions closely mimic cellular environments. Dose responses were measured using an assay to detect the formation of nicotinamide mono-nucleotide. All experiments were performed in the 384-well format. Generally, 0.5 μL of DMSO containing varying concentrations of the test compound was mixed with 10 μL of the enzyme reagent solution. Enzyme reactions were initiated with the addition of 10 μL of a solution containing the substrates. The final assay conditions were as follows: 6 nM human NAMPT, 2.5 mM ATP, 20 μM PRPP and 150 μM nicotinamide in 50 mM HEPES, pH 7.2, 1 mM DTT, 1 mM CHAPS 50 mM NaCl, 100 mM MgCl2. Following an incubation of 60 min at ambient temperature, 10 μL of 20% acetophenone in DMSO was added, followed by 10 μL of 2 M KOH and 40 μL of formic acid. The plates were read for fluorescence (Excitation/Emission=355 nm/460 nm) using an EnVision plate reader after 40 mins of incubation at ambient temperature.

[2] = target: T1, endogenous NAMPT (Homo sapiens, UniProt P43490); test: Cellular NAD+ modulation assay in SH-SY5Y cells; assay type: cell-based; settings: 40 hours
T1 construct: stimulate the endogenous NAMPT in a native cellular environment; endogenous in cells; host or cells: SH-SY5Y neuroblastoma cells
Method: The compounds described herein were also assayed for their ability to stimulate the endogenous NAMPT in a native cellular environment in the cellular NAD+ modulation assay, which measures the ability of the compound to modulate cellular NAD levels. Increased levels of NAD are expected by compounds that permeate the cells and activate the catalytic activity of the endogenous NAMPT.
Neuroblastoma SH-SY5Y cells were grown in 1:1 mixture of Eagle's Minimum Essential Medium and F12 Medium, along with 10% fetal bovine serum, in a humidified incubator with an atmosphere of 95% air and 5% C02 at 37° C. The assays were initiated by plating 20 μL of SH-SY5Y cells in culture medium with 0.1% fetal bovine serum, at a density of 5000 cells per well to a 384-well Corning™ BioCoat™ Poly-D-Lysine Multiwell Plates. The plates were incubated in the 37° C. incubators for a period of 5 hours. Compounds in DMSO were added to the plates in a volume of 120 nL using the Labcyte Echo Liquid Handlers. 5 μL of a 1.5 uM Doxorubicin solution in assay medium is added to each well. The plates are then incubated for 40 hours. 30 μL of a readout-solution containing 0.2 U/mL Diaphorase enzyme, 40 uM resazurin, 10 uM FMN, 0.8 U/mL Alcohol dehydrogenase, 3% ethanol, 0.4 mg/mL bovine serum albumin, 0.2% Triton X-100 in 100 mM Tris-HCl, 30 mM EDTA, pH 8.4. The plates were read for fluorescence (Excitation/Emission=540 nm/590 nm) using an EnVision plate reader after 60 mins of incubation at ambient temperature.

[3] = recombinant human NAMPT, NMN fluorescence, 60 min
[4] = 6 nM human NAMPT, 60 min, NMN formation by fluorescence
[5] = doxorubicin added, cellular NAD readout

human NAMPT, sequence (P43490 whole entry): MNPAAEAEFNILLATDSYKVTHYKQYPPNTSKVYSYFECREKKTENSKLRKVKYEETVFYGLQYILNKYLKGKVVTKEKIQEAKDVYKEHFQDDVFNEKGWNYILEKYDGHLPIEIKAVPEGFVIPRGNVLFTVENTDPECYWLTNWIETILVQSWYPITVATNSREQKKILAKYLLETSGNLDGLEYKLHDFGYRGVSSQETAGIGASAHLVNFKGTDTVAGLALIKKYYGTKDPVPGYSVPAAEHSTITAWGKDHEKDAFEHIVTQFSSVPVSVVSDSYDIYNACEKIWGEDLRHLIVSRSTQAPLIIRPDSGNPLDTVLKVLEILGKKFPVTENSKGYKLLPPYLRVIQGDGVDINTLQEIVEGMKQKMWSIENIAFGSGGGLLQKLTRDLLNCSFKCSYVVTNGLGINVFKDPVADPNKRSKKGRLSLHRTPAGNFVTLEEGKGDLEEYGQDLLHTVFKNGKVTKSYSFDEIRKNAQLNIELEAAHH
T1 sequence (P43490 whole entry): as above

Row | SMILES | EC50 [1, 3] [µM] | EC50 ([2]; doxorubicin) [µM] | AC1.4 (the concentration of compounds that generates 40% higher activity over basal) [1, 4] [µM] | AC0.3 [2, 5] [µM] | other results
1 | CC(C)(O)CN1CCN(Cc2ccc(NC(=O)NCc3ccncc3)cc2)CC1 [Comparator B, reference compound] | 19.7 | > 20.1 |  |  | 
2 | CC(C)(O)CN1CCN(Cc2ccc(NC(=O)NCc3cn[nH]c3)cc2)CC1 [Comparator C, reference compound] | 35.1 | > 20.1 |  |  | 
3 | CC(C)(O)CN1CCN(Cc2ccc(NC(=O)NCc3cnco3)cc2)CC1 [Comparator D, reference compound] | 36.5 | > 20.1 |  |  | 
4 | C[C@H](NCc1ccccc1)c1ccc(NC(=O)NCc2ccc(Cl)cc2)cc1 [Compound 40, [(4-{(1S)-1-[benzylamino]ethyl}phenyl)amino]-N-[(4-chlorophenyl)methyl]carboxamide] |  |  |  |  | AC1.4 Human ([1]; recombinant human NAMPT, NMN fluorescence, 60 min, class symbols): A (AC1.4 values that are less than 0.5 μM); AC0.3 ([2]; doxorubicin, class symbols): C (AC0.3 values that are greater than 2.5 μM)

Continued by falling EC50 [1, 3], values first:

Row | EC50 [1, 3] [µM] | EC50 ([2]; doxorubicin) [µM] | AC1.4 (the concentration of compounds that generates 40% higher activity over basal) [1, 4] [µM] | AC0.3 [2, 5] [µM] | SMILES | other results
5 | 10.6 | 2.3 |  |  | CC(C)(O)CN1CCN(Cc2ccc(NC(=O)NCc3ccccc3)cc2)CC1 [Comparator A, reference compound] | potency relative to compounds with a halo or methoxy substituent at the R^1 position, as measured by AC1.4 ([1]; comparison of AC1.4 values): five to ten times less potent
6 | 10.6 | 0.79 | 0.42 | 0.86 | COc1ccc(CNC(=O)Nc2ccc(CN3CCN(CC(C)(C)O)CC3)cc2)cc1 [Compound 242, 1-(4-((4-(2-hydroxy-2-methylpropyl)piperazin-1-yl)methyl)phenyl)-3-(4-methoxybenzyl)urea] | 
7 | 7.5 | 1.4 | 0.78 | 1.2 | CC(C)(O)CN1CCN(Cc2ccc(NC(=O)NCc3ccc(F)cc3)cc2)CC1 [Compound 167, {[(4-fluorophenyl)methyl]amino}-N-(4-{[4-(2-hydroxy-2-methylpropyl)piperazinyl]methyl}phenyl)carboxamide] | AC1.4 designation [1, 4]: B (AC1.4 values that are between 0.5 μM and 2.5 μM)
8 | 3.1 | 0.16 | 0.15 | 0.15 | CC(C)(O)CN1CCN(Cc2ccc(NC(=O)NCc3ccc(Cl)cc3)cc2)CC1 [Compound 36, {[(4-chlorophenyl)methyl]amino}-N-(4-{[4-(2-hydroxy-2-methylpropyl)piperazinyl]methyl}phenyl)carboxamide] | AC0.3 designation [2, 5]: A (AC0.3 values that are less than 0.5 μM)
